Measured values: patent EP1100507B1, “USE OF A COMBINATION COMPRISING A PRECURSOR OF URIC ACID AND ANTIOXIDANT FOR THE TREATMENT OF NEURODEGENERATIVE DESEASES” (Sacks, Meir S., priority 1998, dated 2000)

Experiments:
[1] = Luminol dependent chemiluminescence activated by SIN-1 (peroxynitrite generator); assay type: biochemical
Description: (§1) We studied the effect of Green tea leaf extract on peroxynitrite. This study is based on a simple chemical interaction of peroxynitrite (OONO-) and luminol which produces blue light upon oxidation. […] In addition peroxynitrite itself was used directly with a fast injection-mixing system to ascertain if there might be differences between it and the peroxynitrite generating system (SIN-1) which mimics the natural production of (OONO-). […] Upon the stimulation of inflammation and/or infection, macrophages and neutrophils can be stimulated to produce large amounts of peroxynitrite.
(§2) The antioxidant effect of green tea and some of its constituents against luminol dependent chemiluminesence activated by peroxynitrite. Since peroxynitrite oxidizes luminol to an intermediate that produces light, antioxidants will inhibit this blue light by interfering with the oxidation of the luminol. In addition, we used SIN-1 which produces both superoxide and nitric oxide which combine to produce peroxynitrite. […] The purpose of this study was to measure the antioxidant activity of green tea extract and some of its prominent polyphenols. This is accomplished by using the antioxidants to oppose the oxidation of luminol by peroxynitrite thereby inhibiting the production of blue light.
(§3) Three sydnonimine congeners are known to produce both nitric oxide and superoxide and then combine to produce peroxynitrite (ONOO). […] It was kept on ice and maintained its activity for several hours of the experiment. Peroxynitrite (approx 50 mM) was diluted 1/1000 with water. The original solution is supplied in 0.3M NaOH and this stabilizes the compound. Once diluted it must be kept on ice and used quickly, especially after dilution. When the diluted OONO- is injected into the PBS buffer at pH=7.4. […] However, the slower reaction with SIN-1 gives an opportunity to dissect the reaction into its component parts, since rapid reaction and injection/mixing are not so crucial.
(§4) The luminol was obtained from Sigma Chemical Company, St. Louis, Mo. It was dissolved first in one ml DMSO and then diluted to produce a stock solution (10^-4M) in 0.1 M Phosphate buffered saline at a pH of 7.4.
Green tea powdered extract was purchased from Pharmanex, Simi Valley, California. 250mg was dissolved in 10ml of phosphate buffered saline (PBS) with pH of 7.4 and used as a stock solution. Dilutions were made using PBS and samples from this original stock solution were diluted every ten fold from one to a million (six samples).
A control solution was also used to provide a reference to the light stimulation produced by the combination of SIN-1 and luminol.
(§5) The luminometer tube was placed in a Berthold model LB9505C tube-6 channel luminometer with the temperature control set at 37°C and the light reaction was measured for 20 minutes. Peroxynitrite reacts with luminol directly and was injected using an essentially pressure-independent injection device, which injects 1/50 of it's total volume (2500 µm) of a gas tight syringe, made by the Hamilton Co. (pat. # 3161323) in Whittier, CA, to produce a blue light at 425 nm, which corresponds to the most sensitive detection range of the photomultipliers for this luminometer. The injection device was linked to a gastight 2500 microliter syringe with a fixed needle of 5.2 cm. This length of needle was necessary to penetrate the septum of the ports of the 6 channel Berthold Luminometer and to extend into the tube far enough to produce reproducible mixing necessary because of the short half-life of peroxynitrite. In Fig. 7, repetitive injections of peroxynitrite are shown giving the light generated over a one minute time period which was acquired, plotted and integrated with an IBM clone computer running KINB software. In the case of SIN-1, the ingredients were mixed prior to assay, with SIN-1 added fast. The assay is reported as counts per minute integrated over the 20 minute time period. […]

[2] = Luminol dependent chemiluminescence activated by directly injected peroxynitrite; assay type: biochemical; settings: for relative antioxidant activity among the catechins tested: peroxynitrite or SIN-1 based light; for inhibition of peroxynitrite-based luminol light: 1000 fold dilution
Description: The end product of purine metabolism in humans is uric acid. This substance is an excellent antioxidant that can interact directly with nearby peroxynitrite. Figure 2 is a graph depicting interaction of peroxynitrite and uric acid and the inhibition of peroxynitrite based chemiluminescence. Figure 2 illustrates the oxidative reaction of peroxynitrite an luminol to produce light (chemiluminescence) and the interference with light which is produced by uric acid at a concentration of 10 µM. […] Allantoin is the end product of purine metabolism in animals except for man, great apes and some dalmatian dogs. […] Such an oxidant occurs most likely through peroxynitrite or possibly hypochlorite.
as §1, §2, §3, §4
as §5, with “software.” for “software. In the case of SIN-1, the ingredients were mixed prior to assay, with SIN-1 added fast. The assay is reported as counts per minute integrated over the 20 minute time period.”

[3] = cited from earlier work; for abilities to increase uric acid levels: nucleotides compared to nucleosides; for uricosuric effect / uric acid levels in the blood: normal, hyperuricemic and gouty humans; for increasing blood uric acid levels: nucleotides compared with DNA and RNA
[4] = system: allergic encephalomyelitis (EAE); settings: mice, 500 mg/kg four times a day, started before or after clinical symptoms of EAE; cited from earlier work
[5] = cited from earlier work
[6] = administered in large amounts (95 mg/kg); oxidized to 2,8 dihydroxyadenine; cited from earlier work
[7] = 1:100 dilution from stock at 0.45 mMolar
[8] = 1:1000 dilution (stock 0.45 mMolar)

In the case of (-) epigallocatechin gallate, the “inhibition of SIN-1 activated luminol light” value ([1]; 1:10 dilution) is reported as 100%, the “effect on light from SIN-1” value [1, 7] is reported as “stimulation of light” and the “inhibition of SIN-1 activated luminol light” value ([1]; full strength) is reported as 100%. For the same compound, the “effect on SIN-1 activated luminol light” value ([1]; further dilution beyond 1:10) was “stimulate production of light”, the “effect on light from peroxynitrite” value [2, 7] was “stimulation of light” and the “pattern with peroxynitrite based light compared with SIN-1 activated light” value ([2]; full strength and 10 fold dilutions) was “same pattern of behavior”. The “relative antioxidant activity among the catechins tested” value [2] was “weakest antioxidant tested”.

In the case of `Nc1nc2c(ncn2[C@@H]2O[C@H](CO)[C@@H](O)[C@H]2O)c(=O)[nH]1` [guanosine], the “abilities to increase uric acid levels” value [3] is given as “equivalent”.

For `Nc1nc2c(ncn2[C@@H]2O[C@H](COP(=O)(O)O)[C@@H](O)[C@H]2O)c(=O)[nH]1` [GMP], the “uricosuric effect / uric acid levels in the blood” value [3] is given as “raised uric acid levels in the blood”, the “abilities to increase uric acid levels” value [3] is given as “equivalent” and the “increasing blood uric acid levels” value [3] is given as “more effective than DNA and RNA”.

For `O=c1[nH]cnc2nc[nH]c12` [hypoxanthine], the “uricosuric effect / uric acid levels in the blood” value [3] is given as “raised uric acid levels in the blood” and the “effectiveness as precursor of uric acid” value ([3]; overall, of AMP, GMP and hypoxanthine) is given as “most effective precursor of uric acid”.

In the case of `O=c1[nH]c(=O)c2[nH]c(=O)[nH]c2[nH]1` [uric acid], the “inhibition of the oxidative reaction of peroxynitrite and luminol (chemiluminescence)” value ([2]; uric acid 10 µM, peroxynitrite 10 µM) is listed as “about 99%”, the survival [4] is listed as “long time survival” and the solubility in water [5] is listed as “highly insoluble in water”.

In the case of `O=c1[nH]c(=O)c2[nH]cnc2[nH]1` [xanthine], the “uricosuric effect / uric acid levels in the blood” value [3] is listed as “ineffective”.

For `Nc1ncnc2c1ncn2[C@@H]1O[C@H](COP(=O)(O)O)[C@@H](O)[C@H]1O` [AMP], the “uricosuric effect / uric acid levels in the blood” value [3] is listed as “raised uric acid levels in the blood”, the “abilities to increase uric acid levels” value [3] is listed as “equivalent” and the “increasing blood uric acid levels” value [3] is listed as “more effective than DNA and RNA”.

For `Nc1nc2nc[nH]c2c(=O)[nH]1` [guanine], the “uricosuric effect / uric acid levels in the blood” value [3] is given as “ineffective”.

For `Oc1cc(O)c2c(c1)OC(c1ccc(O)c(O)c1)C(O)C2` (racemic) [racemic catechin, (±) catechin], the “inhibition of SIN-1 activated luminol light” value [1, 8] was 50%, the “inhibition of SIN-1 activated luminol light” value ([1]; 1:1000 dilution (stock 0.45 mMolar), listed as Racemic catechin) was “about 50%” and the “inhibition of SIN-1 activated luminol light” value ([1]; 10 fold dilutions after 1:1000) was “little inhibition”. For the same compound, the “inhibition of peroxynitrite-based light” value ([2]; 1:10,000 dilution) was 50%, the “inhibition of peroxynitrite-based light” value ([2]; 1:10,000 dilution, listed as Racemic catechin) was “about 50%” and the “inhibition of peroxynitrite-based light” value ([2]; 1:100,000 dilution) was 50%. For the same compound, the “inhibition of peroxynitrite-based luminol light” value [2] was “about 50%” and the “relative antioxidant activity among the catechins tested” value [2] was “very active”.

With (-) epicatechin gallate the “inhibition of SIN-1 activated luminol light” value [1, 8] was “about 50%”, the “inhibition of SIN-1 activated luminol light” value ([1]; 1:1000 dilution (stock 0.45 mMolar), listed as epicatechin gallate (-)) was 60% and the “inhibition of light, peroxynitrite as activator of luminol light” value ([2]; 1:10 dilution) was 100%. The “inhibition of peroxynitrite-based luminol light” value [2] was “about 50%”, the “inhibition of light production, peroxynitrite as activator of luminol light” value ([2]; consecutive 10 fold dilution after 1:10) was “about 25%” and the “relative antioxidant activity among the catechins tested” value [2] was “second most active antioxidant”.

In the case of `Nc1ncnc2nc[nH]c12` [adenine], the “uricosuric effect / uric acid levels in the blood” value [3] is given as “raised uric acid levels in the blood” and the toxicity [6] is given as “can crystallize to form kidney stones”.

In the case of `OC[C@H]1O[C@@H](n2cnc3c(O)ncnc32)[C@H](O)[C@@H]1O` [inosine], the “abilities to increase uric acid levels” value [3] is listed as “equivalent”.
